Where “and” joins values, the source holds several entries; their conditions need not be identical. Identical values can stand only once.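 These data come from cells grown in 96-well plates and exposed to compound for 48 hours at five concentrations. GI50: concentration for 50% inhibition of growth. TGI: concentration producing complete growth inhibition.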
What was measured:
Test in all cases: growth of human tumour cells (NCI), 48 h
KM12 colon = system: KM12 colon
LOX IMVI melanoma = system: LOX IMVI melanoma
KM20L2 colon = system: KM20L2 colon
SR leukemia = system: SR leukemia
UACC-62 melanoma = system: UACC-62 melanoma
T-47D breast = system: T-47D breast
BT-549 breast = system: BT-549 breast
OVCAR-4 ovarian = system: OVCAR-4 ovarian
COLO 205 colon = system: COLO 205 colon
HOP-18 NSCLC = system: HOP-18 NSCLC

Row | SMILES | TGI (KM12 colon) | TGI (LOX IMVI melanoma) | TGI (KM20L2 colon) | TGI (SR leukemia) | TGI (UACC-62 melanoma) | GI50 (KM12 colon) | GI50 (LOX IMVI melanoma) | GI50 (T-47D breast) | TGI (T-47D breast) | GI50 (BT-549 breast) | TGI (BT-549 breast) | GI50 (SR leukemia) | GI50 (OVCAR-4 ovarian) | TGI (OVCAR-4 ovarian) | GI50 (COLO 205 colon) | TGI (COLO 205 colon) | GI50 (UACC-62 melanoma) | TGI (HOP-18 NSCLC)
1 | O=C(NCCc1ccccc1)C1C(=O)C(=O)N(CCc2ccccc2)C1=O (stereo unspecified) | > 100 µM | > 100 µM | > 100 µM | > 100 µM | > 100 µM | – | – | – | – | – | – | – | – | – | – | – | – | –
2 | CSc1nc2nc(-c3ccccc3)c(C)c-2c2n1C(C)C(=O)N2 (stereo unspecified) | > 100 µM | > 100 µM | – | > 100 µM | 45.2 µM | 47.7 µM | 46.7 µM | 29.8 µM | > 100 µM | 50.3 µM | > 100 µM | 39.3 µM | 40.1 µM | > 100 µM | 41.4 µM | > 100 µM | 18.6 µM | –
3 | COCCN(Cc1ccc(F)cc1)c1ccc(CO)c(Cl)c1 | > 100 µM | > 100 µM | – | > 100 µM | 4.28 µM | 33.8 µM | 36.2 µM | 0.748 µM | 7.04 µM | 40.4 µM | > 100 µM | 47.9 µM | 1.82 µM | 23 µM | 11.1 µM | 31.8 µM | 0.653 µM | –
4 | OCCCCC#Cc1ccccc1C#Cc1cccc(C(F)(F)F)c1 | 31.3 µM | 31.8 µM | – | > 100 µM | 29.5 µM | 16.2 µM | 17.5 µM | 22 µM | 44.5 µM | 16.4 µM | 30.7 µM | 18.3 µM | 14 µM | 28.1 µM | 19.2 µM | 36.3 µM | 15.9 µM | –
5 | CC[C@H](C)[C@H](NC(=O)[C@H]1CCCCN1C)C(=O)N(C)[C@H](C[C@@H](OC(C)=O)c1nc(C(=O)NC23CC(C(=O)OC)(C2)C3)cs1)C(C)C | 6.6 µM | > 32.5 µM | – | > 32.5 µM | > 32.5 µM | 0.00319 µM and 0.00325 µM | 0.00054 µM and 0.00325 µM | 0.000499 µM | – | 0.00048 µM and 0.00325 µM | 0.0253 µM and 0.0318 µM | – | 0.0424 µM and 0.0727 µM | > 32.5 µM | 0.00152 µM and 0.00325 µM | 0.0299 µM and 0.0339 µM | 0.000614 µM and 0.00325 µM | –
6 | CN(C)c1ccc(-c2cc(-c3ccc(Nc4nc(Nc5ccc(Cl)cc5)nc(Nc5ccc(Cl)cc5)n4)cc3)nc(N)c2C#N)cc1 | > 100 µM | > 100 µM | – | 9.83 µM | 92.7 µM | 10.3 µM | 18.9 µM | 7.59 µM | > 100 µM | 71.2 µM | > 100 µM | 1.32 µM | 9.86 µM | > 100 µM | 7.88 µM | > 100 µM | 20.4 µM | –
7 | OCC1CC[N-]CC1.OCC1CC[N-]CC1.[Cl][Pt+2]([Cl])([Cl])[Cl] | 77.3 µM | – | – | – | – | 28.9 µM | 11.4 µM | 15.2 µM | 58.1 µM | 27 µM | – | 8.08 µM | 42.5 µM | – | 29.3 µM | – | 29.4 µM | –
8 | CCCCCCCCCCCC[C@@H](O)[C@H]1CC[C@H]([C@H](O)CC[C@H](O)[C@@H]2CC[C@@H](CCCCCCCC3=C[C@H](C)OC3=O)O2)O1 | > 50 µM | – | – | > 50 µM | > 50 µM | 4.26 µM | 1.13 µM | 4.45 µM | > 50 µM | 0.00376 µM | – | > 50 µM | – | > 50 µM | 8.16 µM | > 50 µM | > 50 µM | –
9 | CCCCCC(=O)O[C@]1(C(C)=O)CCC2C3CCC4=CC(=O)CC[C@]4(C)C3CC[C@@]21C (stereo partly specified) | 5.24 µM | 3.14 µM | – | 6.5 µM | 3.88 µM | 2.24 µM | 1.67 µM | 3.77 µM | 25.7 µM | 2.49 µM | 4.71 µM | 2.14 µM | 2.03 µM | 11.6 µM | 2.13 µM | 4.04 µM | 1.63 µM | –
10 | NNC(=O)C(=O)NN=C(C(Cl)(Cl)CO)C(Cl)(Cl)CO | > 100 µM | 35.3 µM | > 100 µM | 50.6 µM | > 100 µM | – | – | – | – | – | – | – | – | > 100 µM | – | > 100 µM | – | > 100 µM
11 | O=C(c1cccs1)c1c(C(F)(F)F)n([O-])c2cc(Cl)c(Cl)cc2[n+]1=O | 1.08 µM | 0.493 µM | – | – | 2.54 µM | 0.517 µM | 0.0703 µM | 2.18 µM | 4.94 µM | 0.975 µM | 2.52 µM | < 0.0214 µM | 1.97 µM | 4.25 µM | 2 µM | 4.13 µM | 1.18 µM | –
12 | COc1cc2nnc3c4cccnc4[nH]c3c2cc1OC | 50 µM and 15.4 µM | 15.7 µM and 4.69 µM | – | – | 12.5 µM and 9.65 µM | 2.68 µM and 1.91 µM | 1.43 µM and 1.41 µM | 0.595 µM and 0.401 µM | 5.61 µM and 3.42 µM | 6.42 µM and 3.75 µM | 43.9 µM and 35.1 µM | 0.117 µM and 0.0395 µM | 1.95 µM and 1.6 µM | 50 µM and > 100 µM | 6.92 µM and 2.96 µM | 16 µM and 11.6 µM | 2.9 µM and 2.49 µM | –
13 | C(=Nc1nc(SCc2ccccc2)nc2[nH]ncc12)c1cccs1 | > 100 µM | > 100 µM | – | 65.3 µM | 61.8 µM | 36.7 µM | 48.6 µM | 21.9 µM | 52.8 µM | 41 µM | > 100 µM | 18.7 µM | > 100 µM | > 100 µM | 22.2 µM | 76.4 µM | 25.4 µM | –
14 | Cc1cc(Br)c(NC(=O)c2c(-c3c(Cl)cccc3Cl)noc2C)c(Br)c1 | > 100 µM | > 100 µM | – | > 100 µM | > 100 µM | > 100 µM | > 100 µM | > 100 µM | > 100 µM | > 100 µM | > 100 µM | > 100 µM | 73.4 µM | > 100 µM | > 100 µM | > 100 µM | 14.3 µM | –
15 | COC(=O)C(C(=O)C(=O)Nc1c(Cl)cc([N+](=O)[O-])cc1Cl)c1csc(-n2nc(C3=CCCCC3)cc2-c2ccccc2)n1 (stereo unspecified) | > 100 µM | > 100 µM | > 100 µM | 78 µM | > 100 µM | – | – | – | – | – | – | – | – | > 100 µM | – | > 100 µM | – | > 100 µM
16 | COc1cc(-c2nccc3[nH]c(-c4ccc5cc[nH]c5c4)nc23)cc(OC)c1OC | 1.5 µM | 1.5 µM | – | 11.9 µM | 2.57 µM | < 0.01 µM | < 0.01 µM | 1.26 µM | 4.38 µM | < 0.01 µM | 2.71 µM | < 0.01 µM | 0.0307 µM | 17.1 µM | < 0.01 µM | < 0.01 µM | < 0.01 µM | –
